From patent publication US20040156869A1, “2-substituted quinazolin-4-ylamine analogues” (Neurogen Corporation, priority 2002, published 2004) come the findings set out here.

The Ki is the dissociation constant of the complex between target and ligand, obtained from inhibition or displacement. A lower Ki goes with tighter binding.

This assay deals with human capsaicin receptor (VR1) (Homo sapiens, UniProt Q8NER1). Put plainly: Capsaicin receptor binding assay ([3H]RTX competition, VR1-transfected HEK293 membranes).
human capsaicin receptor (VR1), sequence (Q8NER1 whole entry): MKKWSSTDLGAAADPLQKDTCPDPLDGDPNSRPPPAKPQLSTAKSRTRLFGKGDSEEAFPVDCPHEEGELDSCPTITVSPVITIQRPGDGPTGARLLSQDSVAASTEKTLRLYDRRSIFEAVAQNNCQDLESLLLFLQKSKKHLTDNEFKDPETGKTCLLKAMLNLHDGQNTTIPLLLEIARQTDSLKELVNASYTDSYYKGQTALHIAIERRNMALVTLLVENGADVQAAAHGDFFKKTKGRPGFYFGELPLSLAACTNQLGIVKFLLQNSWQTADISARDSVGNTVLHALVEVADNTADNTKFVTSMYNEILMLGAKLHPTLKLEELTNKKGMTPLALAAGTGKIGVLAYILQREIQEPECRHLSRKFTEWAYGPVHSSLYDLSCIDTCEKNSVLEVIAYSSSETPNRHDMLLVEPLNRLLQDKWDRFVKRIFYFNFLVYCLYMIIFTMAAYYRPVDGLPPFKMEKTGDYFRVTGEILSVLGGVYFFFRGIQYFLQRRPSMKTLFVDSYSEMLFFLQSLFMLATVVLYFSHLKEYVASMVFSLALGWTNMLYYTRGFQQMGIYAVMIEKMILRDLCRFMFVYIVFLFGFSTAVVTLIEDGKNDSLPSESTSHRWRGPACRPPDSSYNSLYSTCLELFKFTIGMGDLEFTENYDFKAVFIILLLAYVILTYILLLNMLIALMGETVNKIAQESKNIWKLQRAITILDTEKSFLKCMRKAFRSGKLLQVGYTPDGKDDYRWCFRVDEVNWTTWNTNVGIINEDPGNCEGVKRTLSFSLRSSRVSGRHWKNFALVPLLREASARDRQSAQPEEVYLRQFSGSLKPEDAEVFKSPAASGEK
Method: Human embryonic kidney (HEK293) cells were transfected with the pBK-CMV expression construct encoding the full length human capsaicin receptor using standard methods. The transfected cells were selected for two weeks in media containing G418 (400 μg/ml) to obtain a pool of stably transfected cells. Independent clones were isolated from this pool by limiting dilution to obtain clonal stable cell lines for use in subsequent experiments.
For radioligand binding experiments, cells were seeded in T175 cell culture flasks in media without antibiotics and grown to approximately 90% confluency. The flasks were then washed with PBS and harvested in PBS containing 5 mM EDTA. The cells were pelleted by gentle centrifugation and stored at −80° C. until assayed.
Previously frozen cells were disrupted with the aid of a tissue homogenizer in ice-cold HEPES homogenization buffer (5 mM KCl 5, 5.8 mM NaCl, 0.75 mM CaCl2, 2 mM MgCl2, 320 mM sucrose, and 10 mM HEPES pH 7.4). Tissue homogenates were first centrifuged for 10 minutes at 1000×g (4° C.) to remove the nuclear fraction and debris, and then the supernatant from the first centrifugation is further centrifuged for 30 minutes at 35,000×g (4° C.) to obtain a partially purified membrane fraction. Membranes were resuspended in the HEPES homogenization buffer prior to the assay. An aliquot of this membrane homogenate was used to determine protein concentration via the Bradford method (BIO-RAD Protein Assay Kit, #500-0001, BIO-RAD, Hercules, Calif.).
Binding studies with [^3H] […] In this protocol, non-specific RTX binding is reduced by adding bovine alpha1 acid glycoprotein (100 μg per tube) after the binding reaction has been terminated.
Binding assay mixtures are set up on ice and contain [^3H]RTX (specific activity 2200 mCi/ml), 2 μl non-radioactive test compound, 0.25 mg/ml bovine serum albumin (Cohn fraction V), and 5×10^4-1×10^5 VR1-transfected cells. The final volume is adjusted to 500 μl (for competition binding assays) or 1,000 μl (for saturation binding assays) with the ice-cold HEPES homogenization buffer solution (pH 7.4) described above. Non-specific binding is defined as that occurring in the presence of 1 μM non-radioactive RTX (Alexis Corp.; San Diego, Calif.). For saturation binding, [^3H]RTX is added in the concentration range of 7-1,000 pM, using 1 to 2 dilutions. Typically 11 concentration points are collected per saturation binding curve.
Competition binding assays are performed in the presence of 60 pM [^3 H]RTX and various concentrations of test compound. The binding reactions are initiated by transferring the assay mixtures into a 37° C. water bath and are terminated following a 60 minute incubation period by cooling the tubes on ice. Membrane-bound RTX is separated from free, as well as any alpha,-acid glycoprotein-bound RTX, by filtration onto WALLAC glass fiber filters (PERKIN-ELMER, Gaithersburg, Md.) which were pre-soaked with 1.0% PEI (polyethyleneimine) for 2 hours prior to use.
`COc1ncc(-c2ccc3c(Nc4ccc(C(C)(C)C)cc4)nc(CN4C[C@@H](C)O[C@@H](C)C4)nc3c2)c(OC)n1` [Compound 678, (4-tert-Butyl-phenyl)-[7-(2,4-dimethoxy-pyrimidin-5-yl)-2-(2,6-dimethyl-morpholin-4-ylmethyl)-quinazolin-4-yl]-amine (cis)] registered a Ki of less than 1 µM.
The result for `FC(F)(F)c1ccc(Nc2nc(C3CCNCC3)nc3cc(-c4ncccc4C(F)(F)F)ccc23)cc1` [Compound 679, [2-Piperidin-4-yl-7-(3-trifluoromethyl-pyridin-2-yl)-quinazolin-4-yl]-(4-trifluoromethyl-phenyl)-amine] reads less than 1 µM; that for `CCC(C)c1ccc(Nc2nc(CN3C[C@@H](C)O[C@@H](C)C3)nc3cc(-c4ncccc4Cl)ccc23)cc1` (stereo partly drawn) [Compound 680, (4-sec-Butyl-phenyl)-[7-(3-chloro-pyridin-2-yl)-2-(2,6-dimethyl-morpholin-4-ylmethyl)-quinazolin-4-yl]-amine (cis)], less than 1 µM.
For the compound `CC(C)c1ccc(Nc2nc(CN3C[C@@H](C)O[C@@H](C)C3)nc3cc(-c4ncccc4Cl)ccc23)cc1` [Compound 681, [7-(3-Chloro-pyridin-2-yl)-2-(2,6-dimethyl-morpholin-4-ylmethyl)-quinazolin-4-yl]-(4-isopropyl-phenyl)-amine (cis)], the Ki is less than 1 µM.
`C[C@@H]1CN(Cc2nc(Nc3ccc(C(C)(C)C)cc3)c3ccc(-c4ncccc4C(F)(F)F)cc3n2)CCO1` [Compound 682, (R)-(4-tert-Butyl-phenyl)-[2-(2-methyl-morpholin-4-ylmethyl)-7-(3-trifluoromethyl-pyridin-2-yl)-quinazolin-4-yl]-amine] registered a Ki of less than 1 µM.
As for `C[C@@H]1CN(Cc2nc(Nc3ccc(C(F)(F)F)cc3)c3ccc(-c4ncccc4C(F)(F)F)cc3n2)CCO1` [Compound 683, (R)-[2-(2-Methyl-morpholin-4-ylmethyl)-7-(3-trifluoromethyl-pyridin-2-yl)-quinazolin-4-yl]-(4-trifluoromethyl-phenyl)-amine], the figure is less than 1 µM.
As for `CC(C)c1ccc(Nc2nc(CN3CCO[C@H](C)C3)nc3cc(-c4ncccc4C(F)(F)F)ccc23)cc1` [Compound 684, (R)-(4-Isopropyl-phenyl)-[2-(2-methyl-morpholin-4-ylmethyl)-7-(3-trifluoromethyl-pyridin-2-yl)-quinazolin-4-yl]-amine], the figure is less than 1 µM; as for `C[C@H]1CN(Cc2nc(Nc3ccc(C(C)(C)C)cc3)c3ccc(-c4ncccc4C(F)(F)F)cc3n2)CCO1` [Compound 685, (S)-(4-tert-Butyl-phenyl)-[2-(2-methyl-morpholin-4-ylmethyl)-7-(3-trifluoromethyl-pyridin-2-yl)-quinazolin-4-yl]-amine], less than 1 µM; as for `C[C@H]1CN(Cc2nc(Nc3ccc(C(F)(F)F)cc3)c3ccc(-c4ncccc4C(F)(F)F)cc3n2)CCO1` [Compound 686, (S)-[2-(2-Methyl-morpholin-4-ylmethyl)-7-(3-trifluoromethyl-pyridin-2-yl)-quinazolin-4-yl]-(4-trifluoromethyl-phenyl)-amine], less than 1 µM.
For the compound `CC(C)c1ccc(Nc2nc(CN3CCO[C@@H](C)C3)nc3cc(-c4ncccc4C(F)(F)F)ccc23)cc1` [Compound 687, (S)-(4-Isopropyl-phenyl)-[2-(2-methyl-morpholin-4-ylmethyl)-7-(3-trifluoromethyl-pyridin-2-yl)-quinazolin-4-yl]-amine], the inhibition constant (Ki) is less than 1 µM.
As for `CC(C)c1ccc(Nc2nc(CN3C[C@@H](C)O[C@@H](C)C3)nc3cc(-c4ncccc4C(F)(F)F)ccc23)cc1` [Compound 688, [2-(2,6-Dimethyl-morpholin-4-ylmethyl)-7-(3-trifluoromethyl-pyridin-2-yl)-quinazolin-4-yl]-(4-isopropyl-phenyl)-amine (cis)], the figure is less than 1 µM.
The result for `CCN1CCC(c2nc(Nc3ccc(C(F)(F)F)cc3)c3ccc(-c4ncccc4C(F)(F)F)cc3n2)CC1` [Compound 689, [2-(1-Ethyl-piperidin-4-yl)-7-(3-trifluoromethyl-pyridin-2-yl)-quinazolin-4-yl]-(4-trifluoromethyl-phenyl)-amine] reads less than 1 µM.
`CCCN1CCC(c2nc(Nc3ccc(C(F)(F)F)cc3)c3ccc(-c4ncccc4C(F)(F)F)cc3n2)CC1` [Compound 690, [2-(1-Propyl-piperidin-4-yl)-7-(3-trifluoromethyl-pyridin-2-yl)-quinazolin-4-yl]-(4-trifluoromethyl-phenyl)-amine]: the inhibition constant Ki is less than 1 µM.
Take `FC(F)(F)c1ccc(Nc2nc(C3CCN(Cc4ccncc4)CC3)nc3cc(-c4ncccc4C(F)(F)F)ccc23)cc1` [Compound 691, [2-(1-Pyridin-4-ylmethyl-piperidin-4-yl)-7-(3-trifluoromethyl-pyridin-2-yl)-quinazolin-4-yl]-(4-trifluoromethyl-phenyl)-amine]: the inhibition constant (Ki) was less than 1 µM.
`Cn1ccnc1CN1CCC(c2nc(Nc3ccc(C(F)(F)F)cc3)c3ccc(-c4ncccc4C(F)(F)F)cc3n2)CC1` [Compound 692, [2-[1-(1-Methyl-1H-imidazol-2-ylmethyl)-piperidin-4-yl]-7-(3-trifluoromethyl-pyridin-2-yl)-quinazolin-4-yl]-(4-trifluoromethyl-phenyl)-amine] came in with an inhibition constant Ki of less than 1 µM.
As for `CC(=O)N1CCC(c2nc(Nc3ccc(C(F)(F)F)cc3)c3ccc(-c4ncccc4C(F)(F)F)cc3n2)CC1` [Compound 693, 1-{4-[4-(4-Trifluoromethyl-phenylamino)-7-(3-trifluoromethyl-pyridin-2-yl)-quinazolin-2-yl]-piperidin-1-yl}-ethanone], the figure is less than 1 µM; as for `CCC(=O)N1CCC(c2nc(Nc3ccc(C(F)(F)F)cc3)c3ccc(-c4ncccc4C(F)(F)F)cc3n2)CC1` [Compound 694, 1-{4-[4-(4-Trifluoromethyl-phenylamino)-7-(3-trifluoromethyl-pyridin-2-yl)-quinazolin-2-yl]-piperidin-1-yl}-propan-1-one], less than 1 µM; as for `FC(F)(F)c1ccc(Nc2nc([C@@H]3CCCN3)nc3cc(-c4ncccc4C(F)(F)F)ccc23)cc1` [Compound 695, (S)-[2-Pyrrolidin-2-yl-7-(3-trifluoromethyl-pyridin-2-yl)-quinazolin-4-yl]-(4-trifluoromethyl-phenyl)-amine], less than 1 µM.
As for `CCCN1CCC[C@H]1c1nc(Nc2ccc(C(F)(F)F)cc2)c2ccc(-c3ncccc3C(F)(F)F)cc2n1` [Compound 696, (S)-[2-(1-Propyl-pyrrolidin-2-yl)-7-(3-trifluoromethyl-pyridin-2-yl)-quinazolin-4-yl]-(4-trifluoromethyl-phenyl)-amine], the figure is less than 1 µM; as for `CC(C)(C)c1ccc(Nc2nc(CN3CCCS3(=O)=O)nc3cc(-c4ncccc4C(F)(F)F)ccc23)cc1` [Compound 697, (4-tert-Butyl-phenyl)-[2-(1,1-dioxo-1λ^6-isothiazolidin-2-ylmethyl)-7-(3-trifluoromethyl-pyridin-2-yl)-quinazolin-4-yl]-amine], less than 1 µM; as for `CC(=O)c1ccc(Nc2nc(CN3C[C@@H](C)O[C@@H](C)C3)nc3cc(-c4ncccc4C(F)(F)F)cnc23)cc1` [Compound 698, 1-{4-[2-(2,6-Dimethyl-morpholin-4-ylmethyl)-7-(3-trifluoromethyl-pyridin-2-yl)-pyrido[3,2-d]pyrimidin-4-ylamino]-phenyl}-ethanone (cis)], less than 1 µM.
In turn, `FC(F)(F)c1ccc(Nc2nc(Cn3ccnc3)nc3cc(-c4ncccc4C(F)(F)F)cnc23)cc1` [Compound 699, [2-Imidazol-1-ylmethyl-7-(3-trifluoromethyl-pyridin-2-yl)-pyrido[3,2-d]pyrimidin-4-yl]-(4-trifluoromethyl-phenyl)-amine] had an inhibition constant (Ki) of less than 1 µM.
As for `FC(F)(F)c1ccc(Nc2nc(Cn3ccnc3)nc3cc(-c4ncccc4Cl)cnc23)cc1` [Compound 700, [7-(3-Chloro-pyridin-2-yl)-2-imidazol-1-ylmethyl-pyrido[3,2-d]pyrimidin-4-yl]-(4-trifluoromethyl-phenyl)-amine], the figure is less than 1 µM.
The result for `C[C@@H]1CN(C(=O)c2nc(Nc3ccc(C(F)(F)F)cc3)c3ccc(-c4ncccc4C(F)(F)F)cc3n2)C[C@H](C)O1` [Compound 702, (2,6-Dimethyl-morpholin-4-yl)-[4-(4-trifluoromethyl-phenylamino)-7-(3-trifluoromethyl-pyridin-2-yl)-quinazolin-2-yl]-methanone (cis)] reads less than 1 µM.
`CS(=O)(=O)N1CCC(c2nc(Nc3ccc(C(F)(F)F)cc3)c3ccc(-c4ncccc4C(F)(F)F)cc3n2)CC1` [Compound 703, [2-(1-Methanesulfonyl-piperidin-4-yl)-7-(3-trifluoromethyl-pyridin-2-yl)-quinazolin-4-yl]-(4-trifluoromethyl-phenyl)-amine]: the Ki is less than 1 µM.
The result for `CC(C)(CO)NCc1nc(Nc2ccc(C(F)(F)F)cc2)c2ccc(-c3ncccc3C(F)(F)F)cc2n1` [Compound 704, 2-Methyl-2-{[4-(4-trifluoromethyl-phenylamino)-7-(3-trifluoromethyl-pyridin-2-yl)-quinazolin-2-ylmethyl]-amino}-propan-1-ol] reads less than 1 µM.
The result for `CN1CCCN(Cc2nc(Nc3ccc(C(F)(F)F)cc3)c3ccc(-c4ncccc4C(F)(F)F)cc3n2)CC1` [Compound 705, [2-(4-Methyl-[1,4]diazepan-1-ylmethyl)-7-(3-trifluoromethyl-pyridin-2-yl)-quinazolin-4-yl]-(4-trifluoromethyl-phenyl)-amine] reads less than 1 µM; that for `CN(C)CCCN(C)Cc1nc(Nc2ccc(C(F)(F)F)cc2)c2ccc(-c3ncccc3C(F)(F)F)cc2n1` [Compound 706, N,N,N′-Trimethyl-N′-[4-(4-trifluoromethyl-phenylamino)-7-(3-trifluoromethyl-pyridin-2-yl)-quinazolin-2-ylmethyl]-propane-1,3-diamine], less than 1 µM.
The result for `CN(C)C(=O)c1nc(Nc2ccc(C(F)(F)F)cc2)c2ccc(-c3ncccc3C(F)(F)F)cc2n1` [Compound 707, 4-(4-Trifluoromethyl-phenylamino)-7-(3-trifluoromethyl-pyridin-2-yl)-quinazoline-2-carboxylic acid dimethylamide] reads less than 1 µM.
